Assay results as given in PubChem BioAssay (NCI).
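Grown in 96-well plates, cells were treated for 48 hours with each compound at five concentrations. Insufficient inhibition: endpoint recorded as highest concentration tested. TGI: concentration producing complete growth inhibition.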

Columns and labels:
Experiment in all cases: NCI anticancer screen, dose series, 48 h
BT-549 breast = system: BT-549 breast
HS 578T breast = system: HS 578T breast
MDA-N = system: MDA-N
NCI-H226 lung = system: NCI-H226 lung
OVCAR-8 ovarian = system: OVCAR-8 ovarian
RPMI-8226 leukemia = system: RPMI-8226 leukemia
SNB-75 CNS = system: SNB-75 CNS
SW-620 colon = system: SW-620 colon
UACC-257 melanoma = system: UACC-257 melanoma
UO-31 renal = system: UO-31 renal

Row | SMILES | TGI (BT-549 breast) [µM] | TGI (HS 578T breast) [µM] | TGI (MDA-N) [µM] | TGI (NCI-H226 lung) [µM] | TGI (OVCAR-8 ovarian) [µM] | TGI (RPMI-8226 leukemia) [µM] | TGI (SNB-75 CNS) [µM] | TGI (SW-620 colon) [µM] | TGI (UACC-257 melanoma) [µM] | TGI (UO-31 renal) [µM]
1 | CC(=O)Nc1ccc(Nc2cc(=O)n(C)c(=O)[nH]2)cc1 | > 100 | > 100 | > 100 | > 100 | > 100 | > 100 | > 100 | > 100 | > 100 | > 100
2 | N=C(/C=C/c1ccc(-c2cn3cc(/C=C/C(=N)N4CCCC4)ccc3n2)cc1)N1CCCC1 | > 100 | > 100 | > 100 | > 100 | > 100 | > 100 | > 100 | > 100 | > 100 | > 100
3 | CCOC(=O)c1cccc(NC(=O)CBr)c1 | 4.15 | 5.28 | 2.82 | 2.8 | > 21.6 | 3.74 | 3.31 | 1.66 | 3.86 | 1.96
